Article PMC5772236, “In Vitro Enzymatic Depolymerization of Lignin with Release of Syringyl, Guaiacyl, and Tricin Units” (Applied and Environmental Microbiology, 2018)

Assays:
Assay type in all cases: biochemical
[1] = target: T1, LigG (Sphingomonas paucimobilis, UniProt Q9WXJ9); assay: coupled assay, HPLC of products; settings: 25 mM Tris, 2% DMSO, pH 8.0, GSH co-substrate; GS-HPV formed in situ by LigD/LigN/LigE/LigF; epimers not both completely cleaved
T1 construct: recombinant, E. coli, codon optimized; His tag cut by Tev protease (procedure cited)
T1 sequence (Q9WXJ9 1-265): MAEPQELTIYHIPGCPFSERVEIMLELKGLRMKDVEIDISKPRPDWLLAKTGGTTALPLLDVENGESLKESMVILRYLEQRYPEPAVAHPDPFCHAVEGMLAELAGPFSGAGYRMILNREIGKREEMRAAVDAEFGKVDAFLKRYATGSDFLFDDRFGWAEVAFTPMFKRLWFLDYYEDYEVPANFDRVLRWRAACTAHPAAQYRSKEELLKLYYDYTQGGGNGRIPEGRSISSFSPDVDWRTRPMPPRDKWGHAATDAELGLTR

[2] = target: T2, NaGSTNU (Novosphingobium aromaticivorans, UniProt Q2G542); assay: coupled assay with and without enzyme, HPLC of products; settings: 25 mM Tris, 2% DMSO, pH 8.0, GSH co-substrate; GS-HPV formed in situ by LigD/LigN/LigE/LigF; both beta-epimers cleaved
T2 construct: gene Saro_2595; recombinant, E. coli B834; N-terminal His tag cut by Tev protease; cloned from genomic DNA
T2 sequence (Q2G542 1-288): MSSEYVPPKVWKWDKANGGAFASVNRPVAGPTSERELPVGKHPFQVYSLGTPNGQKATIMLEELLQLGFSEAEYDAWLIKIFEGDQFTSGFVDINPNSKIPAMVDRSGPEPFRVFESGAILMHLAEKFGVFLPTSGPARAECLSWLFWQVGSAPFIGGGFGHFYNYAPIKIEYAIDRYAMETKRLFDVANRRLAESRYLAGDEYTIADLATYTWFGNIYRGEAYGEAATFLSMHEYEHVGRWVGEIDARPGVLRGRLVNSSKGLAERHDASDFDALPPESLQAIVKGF

[3] = target: T3, AvGR (Allochromatium vinosum, UniProt D3RSV1); assay: coupled assay with and without AvGR, HPLC of products; settings: 25 mM Tris, 2% DMSO, pH 8.0; NADH formed in situ by LigD/LigN; GSSG co-substrate
T3 construct: gene Alvin_1323; recombinant, E. coli B834, codon optimized, pVP302K; N-terminal His tag cut by Tev protease
T3 sequence (D3RSV1 1-458): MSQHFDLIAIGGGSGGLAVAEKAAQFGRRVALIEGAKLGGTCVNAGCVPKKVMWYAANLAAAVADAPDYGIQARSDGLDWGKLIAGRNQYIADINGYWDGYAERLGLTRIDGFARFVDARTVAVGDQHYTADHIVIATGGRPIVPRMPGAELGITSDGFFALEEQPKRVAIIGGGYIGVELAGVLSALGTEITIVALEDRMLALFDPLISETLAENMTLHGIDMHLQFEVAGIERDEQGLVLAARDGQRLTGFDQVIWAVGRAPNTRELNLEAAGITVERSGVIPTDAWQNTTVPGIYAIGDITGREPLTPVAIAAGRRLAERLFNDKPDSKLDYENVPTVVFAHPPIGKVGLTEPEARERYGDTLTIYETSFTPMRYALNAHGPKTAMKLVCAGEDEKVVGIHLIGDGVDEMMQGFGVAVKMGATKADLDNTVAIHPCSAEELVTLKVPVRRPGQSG

Compound	coupled assay, HPLC of products [1]	coupled assay with and without enzyme, HPLC of products [2]	coupled assay with and without AvGR, HPLC of products [3]
COc1cc(C(=O)C(CO)SC[C@H](NC(=O)CC[C@H](N)C(=O)O)C(=O)NCC(=O)O)ccc1O (mixture of isomers) [GS-HPV, β-S-glutathionyl-γ-hydroxypropiovanillone]	LigG is not able to completely cleave both β-epimers of GS-HPV in vitro	the absence of NaGSTNU prevented the conversion of GS-HPV to HPV	
NC(=O)C1=CN([C@@H]2O[C@H](COP(=O)(O)OP(=O)(O)OC[C@H]3O[C@@H](n4cnc5c(N)ncnc54)[C@H](O)[C@@H]3O)[C@@H](O)[C@H]2O)C=CC1 [NADH]			the presence of AvGR is sufficient to recycle the cosubstrates NAD^+ and GSH
